The values that follow come from ChEMBL document CHEMBL1158275, “Isolation of two new antiinflammatory biflavanoids from Sarcophyte piriei” (J Nat Prod, 1996).

As usually defined, the IC50 is the concentration that gives 50% inhibition.

A short description of test [1]: Inhibition of prostaglandin synthesis in bovine seminal vesicle microsomes using [14C]arachidonic acid. In kind it is functional, Bos taurus, Microsome.
The test system of another test is Neutrophil. Description: Inhibition of PAF-induced exocytosis in neutrophil by spectrophotometer. In kind it is functional, cell-based.

`CC(=O)Oc1ccccc1C(=O)O` [ASPIRIN]: the IC50 in test [1] was found to be 200 µg/mL.

On to `O=C1C[C@H](c2ccc(O)c(O)c2)Oc2c1c(O)cc1c2[C@@H]2C[C@@](c3ccc(O)c(O)c3)(Oc3cc(O[C@@H]4O[C@H](CO)[C@@H](O)[C@H](O)[C@H]4O)cc(O)c32)O1` [DIINSININOL], for which the half-inhibitory concentration (IC50) with Neutrophil came out at 49 µM; in test [1] (read-out: IC50) it was 9.2 µM.

For the compound `O=C1C[C@H](c2ccc(O)cc2)Oc2c1c(O)cc1c2[C@@H]2C[C@@](c3ccc(O)c(O)c3)(Oc3cc(O[C@@H]4O[C@H](CO)[C@@H](O)[C@H](O)[C@H]4O)cc(O)c32)O1` [DIINSININ], the IC50 in the test with Neutrophil was found to be 39 µM; in test [1] (read-out: IC50), 13.1 µM.

Compound `C[C@@H]1C(=O)O[C@H]2[C@H](O)[C@@]34[C@H]5C[C@@H](C(C)(C)C)[C@]36[C@@H](OC(=O)[C@@H]6O)O[C@@]4(C(=O)O5)[C@@]12O` [GINKOLIDE B] had a concentration for half-maximal inhibition (IC50) in the test on Neutrophil of 80 µM.

For `COc1ccc2c(c1)c(CC(=O)O)c(C)n2C(=O)c1ccc(Cl)cc1` [INDOMETHACIN], in test [1] (read-out: IC50), the IC50 is 0.56 µM.
